Source: patent US20250084061A1, “SULFONYL FUNCTIONAL COMPOUND, METHODS AND USES THEREOF” (Hubei Biopesticide Engineering Research Centre, priority 2023, published 2025)
Read-outs that look alike come from different tables or passages of the source.

Tests used:
Magnaporthe oryzae = type: cell-based
[1] = system: Verticillium dahliae.kieb.; assay: Bactericidal (fungicidal) activity by microdilution; type: cell-based
[2] = system: Colletotrichum gloeobosporioids; assay: as above; type: cell-based
Aphiscraccivora = assay: Insecticidal activity, dipping method; type: in vivo
How it was run: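 Aphids tested by dipping in ethanol-dissolved compound diluted to 500, 250 or 125 mg/L with 0.1 mL/L Tween-80, two replicates plus blank control. Mortality scored on a 0/3/5/7/9 scale for 0–30, 30–50, 50–70, 70–90 and 90–100%.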

[3] = system: Fusarium oxysporum f. sp. Niveum; assay: Bactericidal (fungicidal) activity by microdilution; type: cell-based
Rhizoctonia solani = assay: as above; type: cell-based
Septoria nodorum Berk. = assay: as above; type: cell-based
Alternaria kikuchiana = assay: as above; type: cell-based
Plutella xylostella = assay: Insecticidal activity, artificial feed surface coating method; type: in vivo; conditions: Plutella xylostella, read-out: Insecticidal activity (mortality rate grade) Plutella xylostella
How it was run: (§1)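 Artificial diet in 24-well plates, surface-coated with test solution at 500, 250 and 125 mg/L. Each concentration was tested in two replicates (Rep1, Rep2).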

Heliothis armigera = assay: as above; type: in vivo; conditions: Helicoverpa armigera, read-out: Insecticidal activity (mortality rate grade) Heliothis armigera
How it was run: as §1

Leptosphaeria biglobosa = assay: Bactericidal (fungicidal) activity by microdilution; type: cell-based
Thanatephorus cucumeris = assay: as above; type: cell-based
Fusarium culmorum = assay: as above; type: cell-based
Botrytis cinerea = assay: as above; type: cell-based
[4] = system: Corynespora leaf spot of tomato; assay: as above; type: cell-based
Pythium aphanidermatum = assay: as above; type: cell-based

For `COC(=O)Nc1nc2ccccc2n1CCCS(=O)(=O)O` [III-1], the “Fungicidal activity (antibacterial rate grade) Magnaporthe oryzae” value (Magnaporthe oryzae; 12.5 mg/L) was 9 (The antibacterial rate of 90˜100% could be set as 9 if the target has totally no growth), the “Fungicidal activity (antibacterial rate grade) Magnaporthe oryzae” value (Magnaporthe oryzae; 25 mg/L) was 9 (The antibacterial rate of 90˜100% could be set as 9 if the target has totally no growth) and the “Fungicidal activity (antibacterial rate grade) Magnaporthe oryzae” value (Magnaporthe oryzae; 50 mg/L) was 9 (The antibacterial rate of 90˜100% could be set as 9 if the target has totally no growth). For the same compound, the “Fungicidal activity (antibacterial rate grade) Magnaporthe oryzae” value (Magnaporthe oryzae; 100 mg/L) was 9 (The antibacterial rate of 90˜100% could be set as 9 if the target has totally no growth), the “Fungicidal activity (antibacterial rate grade) Verticillium dahliae. kieb.” value ([1]; 12.5 mg/L) was 9 (The antibacterial rate of 90˜100% could be set as 9 if the target has totally no growth) and the “Fungicidal activity (antibacterial rate grade) Verticillium dahliae. kieb.” value ([1]; 25 mg/L) was 9 (The antibacterial rate of 90˜100% could be set as 9 if the target has totally no growth). The “Fungicidal activity (antibacterial rate grade) Verticillium dahliae. kieb.” value ([1]; 50 mg/L) was 9 (The antibacterial rate of 90˜100% could be set as 9 if the target has totally no growth), the “Fungicidal activity (antibacterial rate grade) Verticillium dahliae. kieb.” value ([1]; 100 mg/L) was 9 (The antibacterial rate of 90˜100% could be set as 9 if the target has totally no growth) and the “Fungicidal activity (antibacterial rate grade) Colletotrichum gloeobosporioids” value ([2]; 12.5 mg/L) was 9 (The antibacterial rate of 90˜100% could be set as 9 if the target has totally no growth). For the same compound, the “Fungicidal activity (antibacterial rate grade) Colletotrichum gloeobosporioids” value ([2]; 25 mg/L) was 9 (The antibacterial rate of 90˜100% could be set as 9 if the target has totally no growth), the “Fungicidal activity (antibacterial rate grade) Colletotrichum gloeobosporioids” value ([2]; 50 mg/L) was 9 (The antibacterial rate of 90˜100% could be set as 9 if the target has totally no growth) and the “Fungicidal activity (antibacterial rate grade) Colletotrichum gloeobosporioids” value ([2]; 100 mg/L) was 9 (The antibacterial rate of 90˜100% could be set as 9 if the target has totally no growth). For the same compound, the “Insecticidal activity (mortality rate grade) Aphiscraccivora” value (shortened to “Insecticidal activity”) (Aphiscraccivora; 125 mg/L test solution) was 0 (mortality rate of 0˜30%), the “Insecticidal activity” value (Aphiscraccivora; 250 mg/L test solution) was 0 (mortality rate of 0˜30%) and the “Insecticidal activity” value (Aphiscraccivora; 500 mg/L test solution) was 0 (mortality rate of 0˜30%). The “Fungicidal activity (antibacterial rate grade) Fusarium oxysporum f. sp. Niveum” value ([3]; 12.5 mg/L) was 9 (The antibacterial rate of 90˜100% could be set as 9 if the target has totally no growth), the “Fungicidal activity (antibacterial rate grade) Fusarium oxysporum f. sp. Niveum” value ([3]; 25 mg/L) was 9 (The antibacterial rate of 90˜100% could be set as 9 if the target has totally no growth) and the “Fungicidal activity (antibacterial rate grade) Fusarium oxysporum f. sp. Niveum” value ([3]; 50 mg/L) was 9 (The antibacterial rate of 90˜100% could be set as 9 if the target has totally no growth). The “Fungicidal activity (antibacterial rate grade) Fusarium oxysporum f. sp. Niveum” value ([3]; 100 mg/L) was 9 (The antibacterial rate of 90˜100% could be set as 9 if the target has totally no growth), the “Fungicidal activity (antibacterial rate grade) Rhizoctonia solani” value (Rhizoctonia solani; 12.5 mg/L) was 3 (The antibacterial rate of 0˜30% could be set as 3 if the growth of the target is normal and consistent with that of the blank control) and the “Fungicidal activity (antibacterial rate grade) Rhizoctonia solani” value (Rhizoctonia solani; 25 mg/L) was 3 (The antibacterial rate of 0˜30% could be set as 3 if the growth of the target is normal and consistent with that of the blank control). The “Fungicidal activity (antibacterial rate grade) Rhizoctonia solani” value (Rhizoctonia solani; 50 mg/L) was 3 (The antibacterial rate of 0˜30% could be set as 3 if the growth of the target is normal and consistent with that of the blank control), the “Fungicidal activity (antibacterial rate grade) Rhizoctonia solani” value (Rhizoctonia solani; 100 mg/L) was 3 (The antibacterial rate of 0˜30% could be set as 3 if the growth of the target is normal and consistent with that of the blank control) and the “Fungicidal activity (antibacterial rate grade) Septoria nodorum Berk.” value (Septoria nodorum Berk.; 12.5 mg/L) was 9 (The antibacterial rate of 90˜100% could be set as 9 if the target has totally no growth). The “Fungicidal activity (antibacterial rate grade) Septoria nodorum Berk.” value (Septoria nodorum Berk.; 25 mg/L) was 9 (The antibacterial rate of 90˜100% could be set as 9 if the target has totally no growth), the “Fungicidal activity (antibacterial rate grade) Septoria nodorum Berk.” value (Septoria nodorum Berk.; 50 mg/L) was 9 (The antibacterial rate of 90˜100% could be set as 9 if the target has totally no growth) and the “Fungicidal activity (antibacterial rate grade) Septoria nodorum Berk.” value (Septoria nodorum Berk.; 100 mg/L) was 9 (The antibacterial rate of 90˜100% could be set as 9 if the target has totally no growth). The “Fungicidal activity (antibacterial rate grade) Alternaria kikuchiana” value (Alternaria kikuchiana; 12.5 mg/L) was 3 (The antibacterial rate of 0˜30% could be set as 3 if the growth of the target is normal and consistent with that of the blank control), the “Fungicidal activity (antibacterial rate grade) Alternaria kikuchiana” value (Alternaria kikuchiana; 25 mg/L) was 3 (The antibacterial rate of 0˜30% could be set as 3 if the growth of the target is normal and consistent with that of the blank control) and the “Fungicidal activity (antibacterial rate grade) Alternaria kikuchiana” value (Alternaria kikuchiana; 50 mg/L) was 3 (The antibacterial rate of 0˜30% could be set as 3 if the growth of the target is normal and consistent with that of the blank control). For the same compound, the “Fungicidal activity (antibacterial rate grade) Alternaria kikuchiana” value (Alternaria kikuchiana; 100 mg/L) was 3 (The antibacterial rate of 0˜30% could be set as 3 if the growth of the target is normal and consistent with that of the blank control), the mortality at 125 µg/mL (Plutella xylostella; 125 mg/L test solution) was 0 to 30% and the mortality at 250 µg/mL (Plutella xylostella; 250 mg/L test solution) was 0 to 30%. For the same compound, the mortality at 500 µg/mL (Plutella xylostella; 500 mg/L test solution) was 0 to 30%, the mortality at 125 µg/mL (Heliothis armigera; 125 mg/L test solution) was 0 to 30% and the mortality at 250 µg/mL (Heliothis armigera; 250 mg/L test solution) was 0 to 30%. The mortality at 500 µg/mL (Heliothis armigera; 500 mg/L test solution) was 0 to 30%, the “Fungicidal activity (antibacterial rate grade) Leptosphaeria biglobosa” value (Leptosphaeria biglobosa; 12.5 mg/L) was 9 (The antibacterial rate of 90˜100% could be set as 9 if the target has totally no growth) and the “Fungicidal activity (antibacterial rate grade) Leptosphaeria biglobosa” value (Leptosphaeria biglobosa; 25 mg/L) was 9 (The antibacterial rate of 90˜100% could be set as 9 if the target has totally no growth). For the same compound, the “Fungicidal activity (antibacterial rate grade) Leptosphaeria biglobosa” value (Leptosphaeria biglobosa; 50 mg/L) was 9 (The antibacterial rate of 90˜100% could be set as 9 if the target has totally no growth), the “Fungicidal activity (antibacterial rate grade) Leptosphaeria biglobosa” value (Leptosphaeria biglobosa; 100 mg/L) was 9 (The antibacterial rate of 90˜100% could be set as 9 if the target has totally no growth) and the “Fungicidal activity (antibacterial rate grade) Thanatephorus cucumeris” value (Thanatephorus cucumeris; 12.5 mg/L) was 9 (The antibacterial rate of 90˜100% could be set as 9 if the target has totally no growth). The “Fungicidal activity (antibacterial rate grade) Thanatephorus cucumeris” value (Thanatephorus cucumeris; 25 mg/L) was 9 (The antibacterial rate of 90˜100% could be set as 9 if the target has totally no growth), the “Fungicidal activity (antibacterial rate grade) Thanatephorus cucumeris” value (Thanatephorus cucumeris; 50 mg/L) was 9 (The antibacterial rate of 90˜100% could be set as 9 if the target has totally no growth) and the “Fungicidal activity (antibacterial rate grade) Thanatephorus cucumeris” value (Thanatephorus cucumeris; 100 mg/L) was 9 (The antibacterial rate of 90˜100% could be set as 9 if the target has totally no growth). The “Fungicidal activity (antibacterial rate grade) Fusarium culmorum” value (Fusarium culmorum; 12.5 mg/L) was 9 (The antibacterial rate of 90˜100% could be set as 9 if the target has totally no growth), the “Fungicidal activity (antibacterial rate grade) Fusarium culmorum” value (Fusarium culmorum; 25 mg/L) was 9 (The antibacterial rate of 90˜100% could be set as 9 if the target has totally no growth) and the “Fungicidal activity (antibacterial rate grade) Fusarium culmorum” value (Fusarium culmorum; 50 mg/L) was 9 (The antibacterial rate of 90˜100% could be set as 9 if the target has totally no growth). For the same compound, the “Fungicidal activity (antibacterial rate grade) Fusarium culmorum” value (Fusarium culmorum; 100 mg/L) was 9 (The antibacterial rate of 90˜100% could be set as 9 if the target has totally no growth), the “Fungicidal activity (antibacterial rate grade) Botrytis cinerea” value (Botrytis cinerea; 12.5 mg/L) was 3 (The antibacterial rate of 0˜30% could be set as 3 if the growth of the target is normal and consistent with that of the blank control) and the “Fungicidal activity (antibacterial rate grade) Botrytis cinerea” value (Botrytis cinerea; 25 mg/L) was 3 (The antibacterial rate of 0˜30% could be set as 3 if the growth of the target is normal and consistent with that of the blank control). For the same compound, the “Fungicidal activity (antibacterial rate grade) Botrytis cinerea” value (Botrytis cinerea; 50 mg/L) was 3 (The antibacterial rate of 0˜30% could be set as 3 if the growth of the target is normal and consistent with that of the blank control), the “Fungicidal activity (antibacterial rate grade) Botrytis cinerea” value (Botrytis cinerea; 100 mg/L) was 3 (The antibacterial rate of 0˜30% could be set as 3 if the growth of the target is normal and consistent with that of the blank control) and the “Fungicidal activity (antibacterial rate grade) Corynespora leaf spot of tomato” value (“Fungicidal activity … of tomato” for short) ([4]; 12.5 mg/L) was 3 (The antibacterial rate of 0˜30% could be set as 3 if the growth of the target is normal and consistent with that of the blank control). The “Fungicidal activity … of tomato” value ([4]; 25 mg/L) was 3 (The antibacterial rate of 0˜30% could be set as 3 if the growth of the target is normal and consistent with that of the blank control), the “Fungicidal activity … of tomato” value ([4]; 50 mg/L) was 7 (The antibacterial rate of 70˜90% could be set as 7 if the target has small amounts of growth) and the “Fungicidal activity … of tomato” value ([4]; 100 mg/L) was 7 (The antibacterial rate of 70˜90% could be set as 7 if the target has small amounts of growth). For the same compound, the “Fungicidal activity (antibacterial rate grade) Pythium aphanidematum” value (Pythium aphanidermatum; 12.5 mg/L) was 3 (The antibacterial rate of 0˜30% could be set as 3 if the growth of the target is normal and consistent with that of the blank control), the “Fungicidal activity (antibacterial rate grade) Pythium aphanidematum” value (Pythium aphanidermatum; 25 mg/L) was 3 (The antibacterial rate of 0˜30% could be set as 3 if the growth of the target is normal and consistent with that of the blank control) and the “Fungicidal activity (antibacterial rate grade) Pythium aphanidematum” value (Pythium aphanidermatum; 50 mg/L) was 3 (The antibacterial rate of 0˜30% could be set as 3 if the growth of the target is normal and consistent with that of the blank control). For the same compound, the “Fungicidal activity (antibacterial rate grade) Pythium aphanidematum” value (Pythium aphanidermatum; 100 mg/L) was 3 (The antibacterial rate of 0˜30% could be set as 3 if the growth of the target is normal and consistent with that of the blank control).
